Test results taken from patent US7414131B2, “Bicycloheteroarylamine compounds as ion channel ligands and uses thereof” (Renovis, Inc., priority 2003, dated 2008).
Structures can show the parent of a compound that is named as a salt.

What was measured:
hVR1 = hVR1 (Homo sapiens, UniProt Q8NER1); test: High throughput calcium imaging assay (Fura2, Flex Station) of VR1 antagonists; type: cell-based; conditions: HEK 293 cells expressing hVR1; for % Inhibition @ 1 μM: 1 μM compound, inhibition of calcium ion influx; for IC50: concentrations 10 nM to 3.3 μM
Chain of hVR1 (Q8NER1 whole entry): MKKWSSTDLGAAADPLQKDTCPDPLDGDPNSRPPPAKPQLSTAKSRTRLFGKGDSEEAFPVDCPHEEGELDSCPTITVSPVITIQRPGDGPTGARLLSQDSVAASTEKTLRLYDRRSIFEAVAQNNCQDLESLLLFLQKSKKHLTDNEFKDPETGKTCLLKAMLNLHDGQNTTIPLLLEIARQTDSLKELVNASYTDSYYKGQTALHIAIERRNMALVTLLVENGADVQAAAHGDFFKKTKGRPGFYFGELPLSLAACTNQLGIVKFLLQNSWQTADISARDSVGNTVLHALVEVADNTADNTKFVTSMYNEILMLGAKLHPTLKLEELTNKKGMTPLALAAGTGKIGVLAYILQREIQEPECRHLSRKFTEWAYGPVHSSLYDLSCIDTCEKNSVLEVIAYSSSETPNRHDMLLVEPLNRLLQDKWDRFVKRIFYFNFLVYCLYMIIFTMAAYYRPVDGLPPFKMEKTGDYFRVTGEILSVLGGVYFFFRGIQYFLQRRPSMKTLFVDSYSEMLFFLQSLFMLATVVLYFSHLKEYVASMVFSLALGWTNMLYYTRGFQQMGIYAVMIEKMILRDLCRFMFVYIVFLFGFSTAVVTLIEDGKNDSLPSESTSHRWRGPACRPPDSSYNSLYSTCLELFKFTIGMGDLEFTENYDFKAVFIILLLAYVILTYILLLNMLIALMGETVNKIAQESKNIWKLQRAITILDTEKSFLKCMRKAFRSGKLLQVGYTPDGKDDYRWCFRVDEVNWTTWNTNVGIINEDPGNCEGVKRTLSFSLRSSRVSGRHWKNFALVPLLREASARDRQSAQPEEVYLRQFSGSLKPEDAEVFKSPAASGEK
Text: VR1 protein is a heat-gated cation channel that exchanges about 10 calcium ions for every sodium ion resulting in neuronal membrane depolarization and elevated intracellular calcium ion levels. Therefore the functional activity of compounds at the VR1 receptor may be determined by measuring changes in intracellular calcium levels in 293 cells expressing capsaicin-insensitive VR1 receptor variants. A dual wavelength ratiometric dye, Fura2, was used as an indicator of relative levels of calcium ions in a 96 well format using a bench top scanning fluorometer with integrated fluidics and temperature control (Flex Station, Molecular Devices).
A dual wavelength ratiometric dye, Fura2, was used as an indicator of relative levels of [Ca2+] in a 96 well format using a bench top scanning fluorometer with integrated fluidics and temperature control (Flex Station, Molecular Devices).
HEK 293 cells expressing hVR1 were grown on PDL coated 96-well black-walled plates, in the presence of a DMEM medium containing 5% Penstrep, 5% Glutamax, 200 ug/mL Hygromycin, 5 μg/mL Blasticide and 10% heat inactivated FBS. Prior to assay, the cells were loaded with 5 μg/mL Fura2 in normal saline solution at 37° C. for 40 minutes. Cells were then washed with normal saline to remove the dye.
The assay consists of two stages; a pre-treatment phase followed by a treatment phase. In the pretreatment phase, 50 μl of a compound solution was added to the cells. Immediately following, 50 μl of the test compound in the presence of agonist (a saline solution plus 10 mM citric acid bufferd to pH 5.7 with HCl) was added. Fura2 was excited at […] to indicate relative calcium concentration. Changes in wavelength measurements were made throughout the course of the experiment in 4 second intervals over a period of 3 minutes. The fluorescence ratio from the excitations at […] was recorded for analysis. Responses were measured as peak fluorescence ratio after compound-agonist addition minus baseline fluorescence ratio prior to treatment and were calculated for each concentration tested using the SoftMaxPro software. Data was expressed as percentage inhibition calculated as follows: […]
A dose response curve was then determined, from which the IC50 of each compound was calculated.

Sprague-Dawley male rats = test: Carrageenan-induced thermal hyperalgesia, latency of paw withdrawal; type: in vivo; conditions: rat, carrageenan hindpaw; 30 mg/kg dosed one hour after carrageenan; tested two hours later
Procedure: Sprague-Dawley male rats obtained from Charles River, San Diego, Calif. were purchased at 150-175 g, and held for at least one week before testing. Pain was induced by injecting 100 μl of 2% carrageenan in 0.9% saline sub-Q into the right ventral hindpaw while the animals were under isofluorane anesthesia. Animals were then dosed one hour after with a concentration of 30 mg/kg of Compound 1. Two hours later, after acclimatizing in testing chambers for 20-30 minutes, animals were tested on both hindpaws for latency of paw withdrawal using a thermal testing apparatus. 2-3 trials were conducted with 10 minutes between trials. […] The figure depicts the time in seconds until animals withdraw from thermal stimulation at baseline and two hours after administration of delivery vehicle, control compound, and the dose of 30 mg/kg of Compound 1.

[1] = Pharmacokinetic profile after intravenous and oral administration in rats; type: in vivo, rat; conditions: IV 1 mg/kg, oral 5 mg/kg; for bioavailability / Vd / Cmax / Tmax: male, Sprague-Dawley; for bioavailability / Vd: plasma; for bioavailability / Vd / Cls (L/hrKg) / T/2: rat; for Vd / Cmax / Tmax / Cls (L/hrKg) / T/2: route of this column not given; for Cmax / Tmax: rat plasma
Procedure: The pharmacokinetic profile of Compound 1 was evaluated following intravenous and oral administration in rats. Sprague-Dawley male rats obtained from Charles River, San Diego, Calif. were acclimated for 24 hours.
Compounds of this invention were formulated at a concentration of 0.5 mg/mL for IV administration at a 1 mg/kg dose and 1 mg/mL for oral administration at a 5 mg/kg dose. All animals were weighed before dosing. The body weight was used to calculate the actual dose for each animal. The intravenous dose was administered through the jugular vein catheter in less than 1 minute. The oral dose volume was 1.5 mL for all PO rats administered through oral lavage.
For IV dosing, blood samples were collected using a pre-heparinized syringe via the caproic artery catheter before dosing and at t=2, 5, 15, 30, 60, 120, 180, 360, and 480 minutes post dosing. For PO dosing, blood samples were collected using a pre-heparinized syringe via the caproic artery catheter before dosing and at t=5, 15, 30, 60, 120, 180, 360, and 480 minutes post dosing. 250 uL of blood was obtained at each time point from each animal. Equal volumes of 0.9% normal saline were replaced to prevent dehydration. The whole blood samples were maintained on ice until centrifugation. Blood samples were centrifuged at 14,000 rpm for 10 minutes at 4° C., and the upper plasma layer was transferred into a clean vial and store at −80° C.

Structure (SMILES) | % Inhibition @ 1 μM (hVR1) | further results
CC(C)S(=O)(=O)c1cccnc1N1CCc2c(ncnc2Nc2ccc(C(F)(F)F)cc2)C1 [Example 16, N-(4-(Trifluoromethyl)phenyl)-5,6,7,8-tetrahydro-7-(3-(isopropylsulfonyl)pyridin-2-yl)pyrido[3,4-d]pyrimidin-4-amine] | IA (IA inactive.) | 
c1ccc(CN2CCc3c(ncnc3Nc3ccc4c(c3)OCCO4)C2)cc1 [Example 30, (7-Benzyl-5,6,7,8-tetrahydro-pyrido[3,4-d]pyrimidin-4-yl)-(2,3-dihydro-benzo[1,4]dioxin-6-yl)-amine] | IA (IA inactive.) | 
FC(F)(F)c1ccc(Nc2ncnc3c2CCN(c2ncccc2Cl)C3)cc1 [Example 1, 7-(3-Chloropyridin-2-yl)-N-(4-(trifluoromethyl)phenyl)-5,6,7,8-tetrahydropyrido[3,4-d]pyrimidin-4-amine] |  | latency of paw withdrawal (reversal of thermal hyperalgesia) (Sprague-Dawley male rats): significantly increased latency of paw withdrawal
FC(F)Oc1ccc(Nc2ncnc3c2CCN(c2ncccc2Cl)C3)cc1 [Example 15, 7-(3-Chloropyridin-2-yl)-N-(4-(difluoromethoxy)phenyl)-5,6,7,8-tetrahydropyrido[3,4-d]pyrimidin-4-amine] | IA (IA inactive.) | IC50 (hVR1): > 1000 nM
CS(=O)(=O)c1cccnc1N1CCc2c(ncnc2Nc2ccc(S(=O)(=O)C(F)(F)F)cc2)C1 [Example 23, 5,6,7,8-tetrahydro-7-(3-(methylsulfonyl)pyridin-2-yl)-N-(4-(trifluoromethylsulfonyl)phenyl)pyrido[3,4-d]pyrimidin-4-amine] | + (“+” compound exhibited 0-25% inhibition of calcium ion influx induced by capsaicin stimulation.) | 
Cc1cccc(N2CCc3c(ncnc3Nc3ccc4c(c3)OCCO4)C2)c1 [Example 36, 5,6,7,8-Tetrahydro-N-(2,3-dihydrobenzo[b][1,4]dioxin-6-yl)-7-m-tolylpyrido[3,4-d]pyrimidin-4-amine] |  | IC50 (hVR1): 501 to 1000 nM
CS(=O)(=O)c1nc2c(c(Nc3ccc(C(F)(F)F)cc3)n1)CCN(c1ncccc1Cl)C2 [Example 25, [7-(3-Chloro-pyridin-2-yl)-2-methanesulfonyl-5,6,7,8-tetrahydro-pyrido[3,4-d]pyrimidin-4-yl]-(4-trifluoromethyl-phenyl)-amine] | IA (IA inactive.) | 
CC(C)(C)c1ccc(Nc2ncnc3c2CCN(Cc2ccccc2)C3)cc1 [Example 2, N-(4-tert-Butylphenyl)-7-benzyl-5,6,7,8-tetrahydropyrido[3,4-d]pyrimidin-4-amine] | IA (IA inactive.) | 
O=S(=O)(c1ccc(Nc2ncnc3c2CCN(c2ncccc2Cl)C3)cc1)C(F)(F)F [Example 22, 7-(3-Chloropyridin-2-yl)-5,6,7,8-tetrahydro-N-(4-(trifluoromethylsulfonyl)phenyl)pyrido[3,4-d]pyrimidin-4-amine] | IA (IA inactive.) | 
FC(F)(F)c1ccc(Nc2ncnc3c2CCN(c2ncccc2C(F)(F)F)C3)cc1 [Example 12, (4-Trifluoromethyl-phenyl)-[7-(3-trifluoromethyl-pyridin-2-yl)-5,6,7,8-tetrahydro-pyrido[3,4-d]pyrimidin-4-yl]-amine] |  | IC50 (hVR1): > 1000 nM
Fc1ccc(Nc2ncnc3c2CCN(c2ncccc2Cl)C3)cc1 [Example 19, 7-(3-Chloropyridin-2-yl)-N-(4-fluorophenyl)-5,6,7,8-tetrahydropyrido[3,4-d]pyrimidin-4-amine] | +++ (“+++” compound exhibited 51-75% inhibition of calcium ion influx induced by capsaicin stimulation.) | bioavailability [1]: 5.66%; Vd [1]: 12.2 L/kg; Cmax [1]: 24.5 ng/mL; Tmax [1]: 40.8 min; Cls (L/hrKg) [1]: 4.47 L/hrKg; T/2 [1]: 1.9 h
Clc1cccnc1N1CCc2c(ncnc2Nc2ccccc2)C1 [Example 18, 7-(3-Chloropyridin-2-yl)-5,6,7,8-tetrahydro-N-phenylpyrido[3,4-d]pyrimidin-4-amine] | ++ (“++” compound exhibited 26-50% inhibition of calcium ion influx induced by capsaicin stimulation.) | bioavailability [1]: 4.07%; Vd [1]: 18 L/kg; Cmax [1]: 44.6 ng/mL; Tmax [1]: 55.2 min; Cls (L/hrKg) [1]: 4.45 L/hrKg; T/2 [1]: 2.55 h
FC(F)(F)CCN1CCc2c(ncnc2Nc2ccc3c(c2)OCCO3)C1 [Example 7, (2,3-Dihydro-benzo[1,4]dioxin-6-yl)-[7-(3,3,3-trifluoro-propyl)-5,6,7,8-tetrahydro-pyrido[3,4-d]pyrimidin-4-yl]-amine hydrochloride] | IA (IA inactive.) | 

The next lines start with results.

% Inhibition @ 1 μM (hVR1) | Structure (SMILES) | further results
IA (IA inactive.) | FC(F)(F)c1ccc(Nc2ncnc3c2CCN(c2ccccc2)C3)cc1 [Example 44, N-(4-(Trifluoromethyl)phenyl)-5,6,7,8-tetrahydro-7-phenylpyrido[3,4-d]pyrimidin-4-amine] | 
IA (IA inactive.) | Cc1ccc(N2CCc3c(ncnc3Nc3ccc(C(F)(F)F)cc3)C2)cc1 [Example 47, N-(4-(Trifluoromethyl)phenyl)-5,6,7,8-tetrahydro-7-p-tolylpyrido[3,4-d]pyrimidin-4-amine] | 
IA (IA inactive.) | Cc1ccccc1N1CCc2c(ncnc2Nc2ccc(C(F)(F)F)cc2)C1 [Example 45, N-(4-(Trifluoromethyl)phenyl)-5,6,7,8-tetrahydro-7-o-tolylpyrido[3,4-d]pyrimidin-4-amine] | 
IA (IA inactive.) | COCc1nc2c(c(Nc3ccc(C(F)(F)F)cc3)n1)CCN(Cc1ccccc1)C2 [Example 31, 7-Benzyl-N-(4-(trifluoromethyl)phenyl)-5,6,7,8-tetrahydro-2-(methoxymethyl)pyrido[3,4-d]pyrimidin-4-amine] | 
IA (IA inactive.) | CN(C)CCNc1nc2c(c(Nc3ccc(C(F)(F)F)cc3)n1)CCN(c1ncccc1Cl)C2 [Example 32, 7-(3-Chloropyridin-2-yl)-N^2-(2-(dimethylamino)ethyl)-N^4-(4-(trifluoromethyl)phenyl)-5,6,7,8-tetrahydropyrido[3,4-d]pyrimidine-2,4-diamine] | 
IA (IA inactive.) | FC(F)(F)c1cccc(Nc2ncnc3c2CCN(c2ncccc2Cl)C3)c1 [Example 43, 7-(3-Chloropyridin-2-yl)-N-(3-(trifluoromethyl)phenyl)-5,6,7,8-tetrahydropyrido[3,4-d]pyrimidin-4-amine] | 
IA (IA inactive.) | c1ccc(CN2CCc3c(ncnc3Nc3cnc4ccccc4c3)C2)cc1 [Example 38, 7-Benzyl-5,6,7,8-tetrahydro-N-(quinolin-3-yl)pyrido[3,4-d]pyrimidin-4-amine] | 
